Measured values published in patent US10479795B2 (Incyte Corporation, priority 2016, dated 2019).
Counter-ions that a name gives are not always drawn.

Assays:
[1] = biological target: PI3Kδ (p110δ/p85α) Recombinant Human Protein (Homo sapiens (Human), UniProt O00329); test: PI3Kδ Scintillation Proximity Assay; format: biochemical
Description: Example C. PI3Kδ Scintillation Proximity Assay
[γ-^33P]ATP (10 mCi/mL) and Wheat Germ Agglutinin (WGA) YSi SPA Scintillation Beads was purchased from Perkin-Elmer (Waltham, Mass.). Lipid kinase substrate, D-myo-Phosphatidylinositol 4,5-bisphosphate (PtdIns(4,5)P2)D (+)-sn-1,2-di-O-octanoylglyceryl, 3-O-phospho linked (PIP2), CAS 204858-53-7, was purchased from Echelon Biosciences (Salt Lake City, Utah). PI3Kδ (p110δ/p85α) Recombinant Human Protein was purchased from Eurofins (St Charles, Mo.). ATP, MgCl2, DTT, EDTA, MOPS and CHAPS were purchased from Sigma-Aldrich (St. Louis, Mo.).
The kinase reaction was conducted in polystyrene 384-well Greiner Bio-one white plate from Thermo Fisher Scientific in a final volume of 25 μL. Inhibitors were first diluted serially in DMSO and added to the plate wells before the addition of other reaction components. The final concentration of DMSO in the assay was 2%. The PI3Kδ assay was carried out at room temperature in 20 mM MOPS, pH 6.7, 10 mM MgCl2, 5 mM DTT and CHAPS 0.03%. Reactions were initiated by the addition of ATP, the final reaction mixture consisted of 20 μM PIP2, 2 μM ATP, 0.5 μCi [γ-^33P] ATP, 3.4 nM PI3Kδ. Reactions were incubated for 120 min and terminated by the addition of 40 μL SPA beads suspended in quench buffer: 163 mM potassium phosphate pH 7.8, 20% glycerol, 25 mM EDTA. The final concentration of SPA beads is 1.0 mg/mL. After the plate sealing, plates were shaken overnight at room temperature and centrifuged at 1500 rpm for 10 min, the radioactivity of the product was determined by scintillation counting on Topcount (Perkin-Elmer). IC50 determination was performed by fitting the curve of percent of the solvent control activity versus the log of the inhibitor concentration using the GraphPad Prism 6.0 software.

[2] = biological target: PI3Kγ (p110γ) Recombinant Human Protein (Homo sapiens (Human), UniProt P48736); test: PI3K-γ Scintillation Proximity Assay; format: biochemical; conditions: read-out: PI3Kγ IC50
Sequence of PI3Kγ (p110γ) Recombinant Human Protein (P48736 whole entry): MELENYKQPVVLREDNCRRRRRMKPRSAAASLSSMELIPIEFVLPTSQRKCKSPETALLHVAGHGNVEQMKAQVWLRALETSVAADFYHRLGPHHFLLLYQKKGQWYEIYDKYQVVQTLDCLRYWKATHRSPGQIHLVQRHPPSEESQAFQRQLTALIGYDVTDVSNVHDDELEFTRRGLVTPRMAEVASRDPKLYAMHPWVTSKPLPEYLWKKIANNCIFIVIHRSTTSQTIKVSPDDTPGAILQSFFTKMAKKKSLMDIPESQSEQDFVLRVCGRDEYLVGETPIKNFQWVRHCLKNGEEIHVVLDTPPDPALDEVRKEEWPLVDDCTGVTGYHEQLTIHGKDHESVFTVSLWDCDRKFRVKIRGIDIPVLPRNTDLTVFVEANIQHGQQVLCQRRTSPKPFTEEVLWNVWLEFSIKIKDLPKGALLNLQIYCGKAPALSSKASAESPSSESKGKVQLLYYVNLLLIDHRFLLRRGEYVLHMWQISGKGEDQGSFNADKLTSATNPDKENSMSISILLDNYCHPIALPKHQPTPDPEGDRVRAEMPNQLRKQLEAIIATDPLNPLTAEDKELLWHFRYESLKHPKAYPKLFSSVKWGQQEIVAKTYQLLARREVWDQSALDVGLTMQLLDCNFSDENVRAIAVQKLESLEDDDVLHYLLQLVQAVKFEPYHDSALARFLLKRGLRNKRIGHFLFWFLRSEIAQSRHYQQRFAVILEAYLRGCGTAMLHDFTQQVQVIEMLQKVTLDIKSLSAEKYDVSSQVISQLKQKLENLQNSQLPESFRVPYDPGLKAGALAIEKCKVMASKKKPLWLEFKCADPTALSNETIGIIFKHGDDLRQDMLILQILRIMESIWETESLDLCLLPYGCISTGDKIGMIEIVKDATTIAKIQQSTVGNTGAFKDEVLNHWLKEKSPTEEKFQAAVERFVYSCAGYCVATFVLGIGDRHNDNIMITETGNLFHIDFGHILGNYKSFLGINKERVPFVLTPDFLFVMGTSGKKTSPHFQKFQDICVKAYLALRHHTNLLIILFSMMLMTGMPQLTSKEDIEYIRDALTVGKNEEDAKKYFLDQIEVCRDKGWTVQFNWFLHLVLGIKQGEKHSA
Outline: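 Radiometric SPA readout: […] bound to WGA beads after overnight shaking, IC50 derived from % activity of DMSO control. Reaction used human p110γ, 2 μM ATP, 20 μM PIP2, pH 6.7 MOPS buffer with MgCl2, DTT, CHAPS, 2% DMSO, room temperature.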

Sequence of PI3Kδ (p110δ/p85α) Recombinant Human Protein (O00329 whole entry): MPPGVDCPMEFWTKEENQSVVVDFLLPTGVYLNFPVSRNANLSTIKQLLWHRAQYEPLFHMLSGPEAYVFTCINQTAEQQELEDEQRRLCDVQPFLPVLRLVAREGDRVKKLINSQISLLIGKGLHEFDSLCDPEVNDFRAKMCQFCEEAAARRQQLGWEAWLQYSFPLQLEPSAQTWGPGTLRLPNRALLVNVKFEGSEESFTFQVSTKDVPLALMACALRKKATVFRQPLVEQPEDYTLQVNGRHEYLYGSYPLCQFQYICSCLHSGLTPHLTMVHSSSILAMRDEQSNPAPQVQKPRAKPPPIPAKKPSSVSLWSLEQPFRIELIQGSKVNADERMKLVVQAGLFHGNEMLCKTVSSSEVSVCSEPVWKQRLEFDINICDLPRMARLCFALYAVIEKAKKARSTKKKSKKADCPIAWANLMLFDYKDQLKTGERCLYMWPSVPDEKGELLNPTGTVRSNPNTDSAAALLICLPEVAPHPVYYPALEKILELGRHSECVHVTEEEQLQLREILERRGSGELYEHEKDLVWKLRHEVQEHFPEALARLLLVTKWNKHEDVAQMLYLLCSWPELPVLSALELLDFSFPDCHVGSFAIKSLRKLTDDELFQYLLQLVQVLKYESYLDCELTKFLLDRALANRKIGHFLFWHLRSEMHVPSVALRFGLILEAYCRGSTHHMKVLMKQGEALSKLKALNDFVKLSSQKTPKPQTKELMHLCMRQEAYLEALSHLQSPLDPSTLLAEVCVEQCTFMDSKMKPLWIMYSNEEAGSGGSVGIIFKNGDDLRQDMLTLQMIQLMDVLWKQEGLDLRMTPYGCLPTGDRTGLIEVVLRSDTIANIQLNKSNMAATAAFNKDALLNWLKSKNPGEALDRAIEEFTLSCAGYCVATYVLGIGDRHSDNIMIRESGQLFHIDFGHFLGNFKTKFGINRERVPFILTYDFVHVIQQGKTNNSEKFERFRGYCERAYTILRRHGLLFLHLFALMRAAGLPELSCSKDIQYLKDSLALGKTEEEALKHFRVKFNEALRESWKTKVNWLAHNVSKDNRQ
Sequence of PI3Kδ (p110δ/p85α) Recombinant Human Protein (P27986 whole entry partner): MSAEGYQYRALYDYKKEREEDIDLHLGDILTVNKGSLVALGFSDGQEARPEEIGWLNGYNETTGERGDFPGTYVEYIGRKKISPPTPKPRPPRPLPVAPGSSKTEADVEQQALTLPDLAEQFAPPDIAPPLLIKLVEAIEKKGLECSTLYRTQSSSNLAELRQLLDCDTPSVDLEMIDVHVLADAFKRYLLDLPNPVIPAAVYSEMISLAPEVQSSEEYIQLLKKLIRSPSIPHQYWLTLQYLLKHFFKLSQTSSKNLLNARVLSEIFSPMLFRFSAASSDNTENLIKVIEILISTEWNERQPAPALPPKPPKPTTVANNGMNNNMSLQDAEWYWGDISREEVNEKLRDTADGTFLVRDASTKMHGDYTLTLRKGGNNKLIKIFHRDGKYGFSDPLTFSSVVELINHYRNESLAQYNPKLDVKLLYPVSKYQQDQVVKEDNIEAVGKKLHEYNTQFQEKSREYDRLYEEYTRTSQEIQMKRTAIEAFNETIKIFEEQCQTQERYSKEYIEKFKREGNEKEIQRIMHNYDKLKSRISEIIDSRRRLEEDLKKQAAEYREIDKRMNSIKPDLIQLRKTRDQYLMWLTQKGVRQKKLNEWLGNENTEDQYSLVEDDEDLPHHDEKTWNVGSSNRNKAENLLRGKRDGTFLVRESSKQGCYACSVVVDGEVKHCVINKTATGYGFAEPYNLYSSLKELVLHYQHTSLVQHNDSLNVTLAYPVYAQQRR

SMILES	IC50 [1] [nM]	IC50 [2] [nM]
Cc1ccc(S(=O)(=O)N2CCC(N(C)C)C2)cc1-c1cnc2c(N)ncnn12 (stereo not drawn) [Example 204, 7-(5-((3-(Dimethylamino)pyrrolidin-1-yl)sulfonyl)-2-methylphenyl)imidazo[2,1-f][1,2,4]triazin-4-amine]	500 to 2000	100 to 500
Cc1ccc(S(=O)(=O)N2CCC3(CCC(F)(F)CC3)C2)cc1-c1cnc2c(N)ncnn12 [Example 207, 7-(5-((8,8-Difluoro-2-azaspiro[4.5]decan-2-yl)sulfonyl)-2-methylphenyl)imidazo[2,1-f][1,2,4]triazin-4-amine]	100 to 500	< 100
Cc1ccc(S(=O)(=O)N2CCCC23CCOCC3)cc1-c1cnc2c(N)ncnn12 [Example 209, 7-(5-((8-Oxa-1-azaspiro[4.5]decan-1-yl)sulfonyl)-2-methylphenyl)imidazo[2,1-f][1,2,4]triazin-4-amine]	500 to 2000	< 100
Cc1ccc(S(=O)(=O)N2CCC[C@H]2C(C)(C)O)cc1-c1cnc2c(N)ncnn12 [Example 213, (S)-2-(1-((3-(4-Aminoimidazo[2,1-f][1,2,4]triazin-7-yl)-4-methylphenyl)sulfonyl)pyrroldiin-2-yl)propan-2-ol]	500 to 2000	< 100
N#Cc1ccc(S(=O)(=O)NC23CCC(C#N)(C2)C3)cc1-c1cnc2c(N)ncnn12 [Example 260, 3-(4-Aminoimidazo[2,1-f][1,2,4]triazin-7-yl)-4-cyano-N-(4-cyanobicyclo[2.1.1]hexan-1-yl)benzenesulfonamide trifluoroacetate salt]	500 to 2000	< 100
Cc1ccc(S(=O)(=O)N2CC3(CC(O)C3)C2)cc1-c1cnc2c(N)nc(C(F)(F)F)cn12 [Example 297, 2-((3-(8-amino-6-(trifluoromethyl)imidazo[1,2-a]pyrazin-3-yl)-4-methylphenyl)sulfonyl)-2-azaspiro[3.3]heptan-6-ol]	500 to 2000	< 100
Cc1ccc(S(=O)(=O)N2CCN(C)C(=O)C2)cc1-c1cnc2c(N)nc(C(F)(F)F)cn12 [Example 298, 4-((3-(8-amino-6-(trifluoromethyl)imidazo[1,2-a]pyrazin-3-yl)-4-methylphenyl)sulfonyl)-1-methylpiperazin-2-one]	500 to 2000	< 100
Cc1ccc(S(=O)(=O)N2CCCC2c2c(C)noc2C)cc1-c1cnc2c(N)nc(C(F)(F)F)cn12 (stereo not drawn) [Example 300, 3-(5-((2-(3,5-dimethylisoxazol-4-yl)pyrrolidin-1-yl)sulfonyl)-2-methylphenyl)-6-(trifluoromethyl)imidazo[1,2-a]pyrazin-8-amine]	500 to 2000	< 100
Cc1ccc(S(=O)(=O)N2CC3CC3(C#N)C2)cc1-c1cnc2c(N)nc(C(F)(F)F)cn12 (stereo not drawn) [Example 302, 3-((3-(8-amino-6-(trifluoromethyl)imidazo[1,2-a]pyrazin-3-yl)-4-methylphenyl)sulfonyl)-3-azabicyclo[3.1.0]hexane-1-carbonitrile]	500 to 2000	< 100
Cc1ccc(S(=O)(=O)N2CC3NCC2C3O)cc1-c1cnc2c(N)nc(C(F)(F)F)cn12 (stereo not drawn) [Example 303, 2-((3-(8-amino-6-(trifluoromethyl)imidazo[1,2-a]pyrazin-3-yl)-4-methylphenyl)sulfonyl)-2,5-diazabicyclo[2.2.1]heptan-7-ol 2HCl]	500 to 2000	< 100
Cc1ccc(S(=O)(=O)N2CCOC3CNCC32)cc1-c1cnc2c(N)nc(C(F)(F)F)cn12 (stereo not drawn) [Example 304, 3-(5-((hexahydropyrrolo[3,4-b][1,4]oxazin-4(4aH)-yl)sulfonyl)-2-methylphenyl)-6-(trifluoromethyl)imidazo[1,2-a]pyrazin-8-amine]	500 to 2000	< 100
COC1CCCN(S(=O)(=O)c2ccc(C)c(-c3cnc4c(N)nc(C(F)(F)F)cn34)c2)C1 (stereo not drawn) [Example 313, 3-(5-((3-Methoxypiperidin-1-yl)sulfonyl)-2-methylphenyl)-6-(trifluoromethyl)imidazo[1,2-a]pyrazin-8-amine]	100 to 500	< 100
CCN1CC2C(O)C1CN2S(=O)(=O)c1ccc(C)c(-c2cnc3c(N)nc(C(F)(F)F)nn23)c1 (stereo not drawn) [Example 349, 2-((3-(4-amino-2-(trifluoromethyl)imidazo[2,1-f][1,2,4]triazin-7-yl)-4-methylphenyl)sulfonyl)-5-ethyl-2,5-diazabicyclo[2.2.1]heptan-7-ol]	500 to 2000	< 100
Cc1ccc(S(=O)(=O)N2CC3C(O)C2CN3C(C)C)cc1-c1cnc2c(N)nc(C(F)(F)F)nn12 (stereo not drawn) [Example 350, 2-((3-(4-amino-2-(trifluoromethyl)imidazo[2,1-f][1,2,4]triazin-7-yl)-4-methylphenyl)sulfonyl)-5-isopropyl-2,5-diazabicyclo[2.2.1]heptan-7-ol]	500 to 2000	100 to 500
Cc1ccc(S(=O)(=O)N2CC3C(O)C2CN3C2CCC(C#N)C2)cc1-c1cnc2c(N)nc(C(F)(F)F)nn12 (stereo not drawn) [Example 351, 3-(5-((3-(4-amino-2-(trifluoromethyl)imidazo[2,1-f][1,2,4]triazin-7-yl)-4-methylphenyl)sulfonyl)-7-hydroxy-2,5-diazabicyclo[2.2.1]heptan-2-yl)cyclopentane-1-carbonitrile]	500 to 2000	< 100
Cc1ccc(S(=O)(=O)N2CC3C(O)C2CN3C)cc1-c1cnc2c(N)nc(C(F)(F)F)nn12 (stereo not drawn) [Example 352, 2-((3-(4-amino-2-(trifluoromethyl)imidazo[2,1-f][1,2,4]triazin-7-yl)-4-methylphenyl)sulfonyl)-5-methyl-2,5-diazabicyclo[2.2.1]heptan-7-ol]	500 to 2000	< 100
Cc1cc(C)c(S(=O)(=O)NCC(C)(C)O)cc1-c1cnc2c(N)nccn12 [Example 361, 5-(8-aminoimidazo[1,2-a]pyrazin-3-yl)-N-(2-hydroxy-2-methylpropyl)-2,4-dimethylbenzenesulfonamide]	100 to 500	100 to 500
Nc1ncnn2c(-c3ccc(F)c(S(=O)(=O)NC45CCC(CO)(C4)C5)c3)cnc12 [Example 366, 5-(4-Aminoimidazo[1,2-f][1,2,4]triazin-7-yl)-2-fluoro-N-(4-(hydroxymethyl)bicyclo[2.1.1]hexan-1-yl)benzenesulfonamide trifluoroacetate salt]	100 to 500	< 100
Nc1ncnn2c(-c3cccc(S(=O)(=O)NC45CCC(CO)(C4)C5)c3)cnc12 [Example 368, 3-(4-Aminoimidazo[1,2-f][1,2,4]triazin-7-yl)-N-(4-(hydroxymethyl)bicyclo[2.1.1]hexan-1-yl)benzenesulfonamide trifluoroacetate salt]	100 to 500	< 100
Cc1ccc(-c2cnc3c(N)ncnn23)cc1S(=O)(=O)NC12CCC(C#N)(C1)C2 [Example 369, 5-(4-Aminoimidazo[1,2-f][1,2,4]triazin-7-yl)-N-(4-cyanobicyclo[2.1.1]hexan-1-yl)-2-methylbenzenesulfonamide trifluoroacetate salt]	100 to 500	< 100
Cc1ccc(S(=O)(=O)N[C@H]2C[C@H](C#N)C2)cc1-c1cnc2c(N)ncnn12 [Example 370, 3-(4-Aminoimidazo[2,1-f][1,2,4]triazin-7-yl)-N-((1r,3r)-3-cyanocyclobutyl)-4-(methyl-d3)benzenesulfonamide trifluoroacetate salt]	100 to 500	< 100
COc1ccc(S(=O)(=O)NC23CCC(C#N)(C2)C3)cc1-c1cnc2c(N)ncnn12 [Example 372, 3-(4-Aminoimidazo[1,2-f][1,2,4]triazin-7-yl)-N-(4-cyanobicyclo[2.1.1]hexan-1-yl)-4-methoxybenzenesulfonamide trifluoroacetate salt]	500 to 2000	< 100
N#CC12CCC(NS(=O)(=O)c3ccc(OC(F)(F)F)c(-c4cnc5c(N)ncnn45)c3)(C1)C2 [Example 373, 3-(4-Aminoimidazo[1,2-f][1,2,4]triazin-7-yl)-N-(4-cyanobicyclo[2.1.1]hexan-1-yl)-4-(trifluoromethoxy)benzenesulfonamide trifluoroacetate salt]	500 to 2000	500 to 2000
Cc1cn2c(-c3ccc(F)c(S(=O)(=O)NC45CC(C#N)(C4)C5)c3)cnc2c(N)n1 [Example 382, 5-(8-Amino-6-methylimidazo[1,2-a]pyrazin-3-yl)-N-(3-cyanobicyclo[1.1.1]pentan-1-yl)-2-fluorobenzenesulfonamide trifluoroacetate salt]	500 to 2000	100 to 500
